{"source": "patent US9012439B2", "about": "“Use of electrophilic compounds for inducing platelet production or maintaining platelet function” (University of Rochester, priority 2007, dated 2015)", "key": {"[1]": {"test_system": "primary mouse megakaryocytes", "experiment": "DNA content analysis of primary mouse megakaryocytes", "format": "cell-based", "method": "Bone marrow was isolated from the femora of male C57BL/6 mice (Jackson Laboratories, Bar Harbor, Me.) and plated at a concentration of 1×10^6 cells per well in 12-well plates in IMDM (Iscove's Modified Dulbecco's Media, Invitrogen) with 20% BIT 9500 (BSA, insulin, transferrin) and supplemented with 100 ng/mL of rhTPO. Cells were cultured for 5 days, following which 15d-PGJ2 (10 μM) was added to the culture medium for 24 h. On the sixth day, cells were examined by phase-contrast microscopy using an inverted microscope (Olympus IX81) and images were captured using SPOT RT software (New Hyde Park, N.Y.). Megakaryocytes were identified by preincubating with anti-mouse CD16/32 (FcγR-blocking antibody) and then incubating with PE-conjugated hamster anti-mouse CD41 antibody.\nCells were fixed in 95% ethanol, treated with RNAse (Sigma) followed by 20 μg/mL propidium iodide (Sigma) to stain DNA, and analyzed by flow cytometry."}, "C57BL/6 mice": {"test_system": "C57BL/6 mice", "experiment": "Circulating platelet number in unirradiated mice", "format": "in vivo, mouse (C57BL/6)", "settings": "unirradiated mice, 1 mg/kg IV for 4 consecutive days", "method": "Seven or 8-week-old male C57BL/6 mice (Jackson Laboratories) were either exposed to 5 Gy cesium (Cs^137) total body irradiation (TBI) using a Model 8114 6000 Curie Shepherd Cs^137 irradiator (approximately 3200 Curie sealed Cs^137 source) with a dose rate of […] or left unexposed. Mice (n=4) received intravenous injections of vehicle (8% DMSO) or 15d-PGJ2 (1 mg/kg) or CDDO-Me (250 μg/kg) for 4 consecutive days from day 1 (days 1, 2, 3 and 4 post-irradiation). Blood was obtained from the aorta or the orbital sinus. Platelets were counted prior to radiation exposure and after radiation exposure on day 10, day 22, and day 31 in Example 7, or days 4, 10, 16, and 21 in Example 9 using the Heska® CBC-Diff™ Veterinary Analyzer (Fort Collins, Colo.). Data are expressed as average platelet counts from two separate experiments. For the unirradiated mice, platelets were counted on day 4, day 10, and day 15 in Example 7 or on the same days in Example 9."}, "[2]": {"test_system": "mouse megakaryocyte progenitors (Meg-CFC)", "experiment": "Megakaryocyte progenitor (Meg-CFC) assay on bone marrow of treated mice", "format": "in vivo", "method": "Primary mouse bone marrow cells were suspended in IMDM at a concentration of 8×10^6 cells/mL. Two-hundred thousand cells were plated in IMDM supplemented with 20% BIT9500, 0.2% 2-mercaptoethanol, 2% Glutamax, and 20% Cellgro-H20 (Mediatech, Herndon, Va.) and cultured with rhTPO (50 ng/mL), IL-3 (10 ng/mL) (Preprotech, Rocky Hill, N.J.), IL-6 (20 ng/mL) (Preprotech), IL-11 (Preprotech) (50 ng/mL), and collagen at 37° for 7 days (Tober et al., “The Megakaryocyte Lineage Originates from Hemangioblast Precursors and is an Integral Component Both of Primitive and of Definitive Hematopoiesis,” Blood 109:1433-1441 (2007), which is hereby incorporated by reference in its entirety). Collagen gels were dehydrated, fixed, and labeled with GPIbβ and GPV, modified by ABC (Vector Labs, Burlingame, Calif.), and developed in Vector Red (Vector Labs). Meg-CFC were defined by their ability to generate colonies containing at least three megakaryocytes."}, "Meg-01-derived platelets": {"test_system": "Meg-01-derived platelets", "experiment": "Collagen-induced shape change of Meg-01-derived platelets", "format": "cell-based, human", "settings": "platelets from Meg-01 cells treated 10 μM for 24 h; collagen 10 μg/mL, 15 min", "method": "(§1) Platelets were isolated from the Meg-01 cells and human blood as described above. Both normal human platelets and Meg-01-derived platelets were stained with annexin V-FITC then treated with 10 μg/ml of collagen for 15 min. Cells were analyzed for collagen-induced annexin V binding and change in size and shape by flow cytometry. Platelets were isolated from primary human megakaryocytes and primary mouse megakaryocytes as described above. Primary human platelets were stained with CD41-FITC and primary mouse platelets were stained with CD61-PE then treated with 10 μg/mL of collagen. Cells were analyzed for collagen-induced CD61/CD41 upregulation and change in size and shape using flow cytometry."}, "PPARγ": {"target": "T1, PPARγ (Homo sapiens, UniProt P37231)", "T1 construct": "Meg-01 cells were plated at a density of […] cells per well in a E-well plate and transfected; endogenous in cells; host or cells: Meg-01 cells", "T1 sequence (P37231 1-505)": "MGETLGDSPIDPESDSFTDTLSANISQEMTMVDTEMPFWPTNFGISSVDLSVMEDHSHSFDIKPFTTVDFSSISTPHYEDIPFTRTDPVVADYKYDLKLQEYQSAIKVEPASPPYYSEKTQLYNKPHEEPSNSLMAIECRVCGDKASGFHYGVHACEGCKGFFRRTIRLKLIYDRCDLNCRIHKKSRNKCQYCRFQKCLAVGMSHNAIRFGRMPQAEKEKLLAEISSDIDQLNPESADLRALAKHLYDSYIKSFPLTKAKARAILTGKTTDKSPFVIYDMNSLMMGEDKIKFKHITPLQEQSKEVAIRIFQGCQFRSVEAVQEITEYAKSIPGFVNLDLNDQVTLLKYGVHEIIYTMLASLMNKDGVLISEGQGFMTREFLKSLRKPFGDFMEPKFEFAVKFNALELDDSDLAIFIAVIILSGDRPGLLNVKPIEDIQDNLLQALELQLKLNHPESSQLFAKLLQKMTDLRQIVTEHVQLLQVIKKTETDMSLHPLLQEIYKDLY", "experiment": "PPARγ gene reporter analysis (PPRE-luciferase) in Meg-01 cells", "format": "cell-based", "settings": "10 μM, 24 h after ligand treatment", "method": "Meg-01 cells were plated at a density of […] cells per well in a […] and transfected, using lipofectamine LTX (Invitrogen), with a PPRE (Peroxisome Proliferator Response Element)-luciferase reporter plasmid containing three copies of the ACO-PPRE (a gift from Dr. B. Seed, Massachusetts General Hospital, Boston, Mass.). […] Transfection efficiency was determined by transfecting the cells with green fluorescent protein (GFP) plasmid and determining the percentage of cells that were GFP+ by flow cytometry. […] Luciferase activity was assessed 24 h after ligand treatment using the Promega Luciferase Assay System, and relative light units (RLU) were determined using a Lumicount Microplate Luminometer (Packard Instrument Co., Meriden, Conn.)."}, "[3]": {"test_system": "mouse bone marrow culture-derived platelets", "experiment": "Function of mouse bone marrow culture-derived platelets (collagen response, spreading on fibrinogen)", "format": "cell-based, mouse (C57BL/6)", "method": "as §1\nCoverslips were coated with 100 μg/mL of fibrinogen for 1 h and blocked with 0.5 mg/mL BSA for 1 h. Platelets were added to the fibrinogen-coated coverslips in Tyrode's buffer and fixed with glutaraldehyde, post-fixed with 1% osmium tetroxide, and dehydrated. Platelets were then coated with a gold/palladium film. Images were acquired using the Zeiss-Leo 982 FE-SEM (scanning electron microscope)."}, "[4]": {"settings": "mice injected 1 mg/kg for two consecutive days, 7 days of culture"}}}
{"smiles": "CCCCCC=CC=C1C(=O)C=C[C@@H]1CC=CCCCC(=O)O", "note": "[15d-PGJ2, 15-deoxy-Δ^12,14 prostaglandin J2]", "values": [{"measurement": "primary mouse megakaryocyte ploidy", "setting": "[1]; by 24 h", "result": "enhanced primary mouse megakaryocyte ploidy"}, {"measurement": "DNA content", "setting": "[1]; primary mouse megakaryocytes, 10 μM, 24 h", "result": "increased DNA content"}, {"measurement": "platelet numbers compared with vehicle", "setting": "C57BL/6 mice", "result": "higher platelet numbers"}, {"measurement": "megakaryocyte number", "setting": "[2]", "result": "failed to increase megakaryocyte number"}, {"measurement": "megakaryocyte colony number (Meg-CFC)", "setting": "[2]; [4]", "result": "did not influence megakaryocyte colony number or colony size"}, {"measurement": "megakaryocyte colony size (Meg-CFC)", "setting": "[2]; [4]", "result": "did not influence megakaryocyte colony number or colony size"}, {"measurement": "percentage of megakaryocytes producing proplatelets", "setting": "[2]; [4]", "result": "significantly augmented the percentage of megakaryocytes producing proplatelets"}, {"measurement": "platelets that decreased their size and increased their granularity in response to collagen", "setting": "Meg-01-derived platelets", "result": 68, "unit": "%"}, {"measurement": "PPARγ activation (PPRE-luciferase activity)", "setting": "PPARγ", "result": "activated PPARγ"}, {"measurement": "platelet spreading on fibrinogen", "setting": "[3]; mouse bone marrow culture-derived platelets, fibrinogen coated slide", "result": "spread in response to fibrinogen"}, {"measurement": "geometric mean fluorescence intensity of surface CD41, after collagen treatment", "setting": "[3]; platelets from mouse bone marrow cultures treated with 15d-PGJ2, collagen 10 μg/mL, 15 min", "result": 20}, {"measurement": "geometric mean fluorescence intensity of surface CD41, before collagen", "setting": "[3]; platelets from mouse bone marrow cultures treated with 15d-PGJ2, no collagen", "result": 9}]}
